One data set has as its system HT-29 cells. As to the kind of experiment: Apoptosis and necrosis by morphology (acridine orange/ethidium bromide) in HT-29 cells. The note with it: HT-29 treated for six days. It is filed as cell-based, human. The source says:
Apoptosis occurs naturally during normal tissue turnover and during embryonic development of organs and limbs. Apoptosis also is induced by cytotoxic T-lymphocytes and natural killer cells, by ionizing radiation and by certain chemotherapeutic drugs. Inappropriate regulation of apoptosis is thought to play an important role in many pathological conditions including cancer, AIDS, or Alzheimer's disease, etc. Compounds can be screened for induction of apoptosis using cultures of tumor cells maintained under conditions as described above. Treatment of cells with test compounds involves either pre- or post-confluent cultures and treatment for two to seven days at various concentrations. Apoptotic cells are measured in both the attached and “floating” compartments of the cultures. Both compartments are collected by removing the supernatant, trypsinizing the attached cells, and combining both preparations following a centrifugation wash step (10 minutes, 2000 rpm). The protocol for treating tumor cell cultures with sulindac and related compounds to obtain a significant amount of apoptosis has been described in the literature. […]
The apoptosis inducing activity for a series of phosphodiesterase inhibitors was determined. […] Apoptosis and necrosis were determined morphologically after acridine orange and ethidium bromide labeling in accordance with the assay described, supra.

Data set [1] concerns PKG in SW480 colon cancer cells. As to the kind of experiment: PKG activity assay on lysates of drug-treated SW480 cells. Format: cell-based, human. The note with it: SW480, 48 hrs, with and without added cGMP. The source says:
That sequence is known and described in the literature below. […] One way to bind the PDE5 sequences to a solid phase is to express those sequences as a fusion protein of the PDE5 sequence and one member of an amino acid binding pair, and chemically link the other member of that amino acid binding pair to a solid phase (e.g., beads). One binding pair that can be used is glutathione S-transferase (“GST”) and glutathione (“GSH”), with the GST being expressed as a fusion protein with the PDE5 sequence described above, and the GSH bound covalently to the solid phase. In this fashion, the PDE5 sequence/GST fusion protein can be bound to a solid phase simply by passing a solution containing the fusion protein over the solid phase, as described below.
To assay a liquid sample believed to contain PKG using the PDE5-bound solid phase described above, the sample and the solid phase are mixed with phosphorylation buffer containing ^32P-γ-ATP. The solution is incubated for 30 minutes at 30° C. to allow for phosphorylation of the PDE5 sequence by PKG to occur, if PKG is present. […]
For each control or drug cell lysate sample to be evaluated, the reaction is started by adding phosphorylation buffer containing 10 μCi ^32P-γ-ATP solution (200 μM ATP, 4.5 mM MgCl; 5 mM KH2PO4; 5 mM K2HPO4;) to each mixture. […]

The test system of data set [2] is PKG in HCT116 colon cancer cells. As to the kind of experiment: PKG activity assay on lysates of drug-treated HCT116 cells. Format: cell-based. The source says:
To test the effect of cGMP-specific PDE inhibition on neoplasia containing the β-catenin mutation, HCT116 colon cancer celis were employed. HCT116 is known to contain the β-catenin mutation, but is known not to contain the APC mutation.
The same procedure is used to grow the HCT116 cells as is used in the SW480 procedure described above. In this experiment, only exisulind and controls were used.

The nature of data set [3]: Safety evaluation in exisulind clinical trials. Format: in vivo. As to the method:
In these exisulind trials and several others involving the drug in other indications, safety was evaluated by monitoring adverse events (AEs), clinical laboratory tests (hematology, serum chemistry, and urinalysis), vital signs (blood pressure, pulse rate, respiratory rate, temperature, and weight), physical examination, and upper endoscopy.

Data set [4] addresses T1, cGMP binding sites of GST-cGB-PDE5 fusion protein (Homo sapiens, UniProt O76074).
T1 construct: made in house; host or cells: E. coli BL21 (DE3)
As to the kind of experiment: cGMP binding assay with GST-cGB-PDE5 fusion protein. The note with it: FIG. 24.

T1 sequence (O76074 46-539 limits assumed): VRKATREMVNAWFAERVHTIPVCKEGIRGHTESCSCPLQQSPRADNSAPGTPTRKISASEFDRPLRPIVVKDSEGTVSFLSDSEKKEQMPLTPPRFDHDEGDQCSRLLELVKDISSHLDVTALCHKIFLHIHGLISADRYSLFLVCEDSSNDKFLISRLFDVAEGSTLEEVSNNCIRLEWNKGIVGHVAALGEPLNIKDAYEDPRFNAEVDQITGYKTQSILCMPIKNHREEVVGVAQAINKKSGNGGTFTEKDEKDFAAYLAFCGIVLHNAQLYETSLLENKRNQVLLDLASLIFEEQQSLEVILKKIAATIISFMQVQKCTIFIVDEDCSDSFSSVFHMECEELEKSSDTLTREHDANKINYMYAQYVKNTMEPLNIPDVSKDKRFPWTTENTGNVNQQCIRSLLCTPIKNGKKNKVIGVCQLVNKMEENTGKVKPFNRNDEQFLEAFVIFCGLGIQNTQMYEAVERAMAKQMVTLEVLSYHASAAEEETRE

Regarding `CC1=C(CC(=O)O)c2cc(F)ccc2/C1=C\c1ccc(S(C)(=O)=O)cc1` [Exisulind, 5-fluoro-2-methyl-1-(p-methylsulfonylbenzylidene)-3-indenylacetic acid], the “apoptotic and necrotic cell death” value in the data set on HT-29 cells is “capable of causing apoptotic cell death without inducing necrosis”. In addition, the “PKG activity relative to control” value in data set [1] is “causes PKG activity to increase in a dose-dependent manner”. The “PKG activity relative to control” value in data set [2] is “PKG that was phosphorylated to a greater extent than the corresponding controls”. For the same compound, in data set [3] (human, in vivo), the “clinical safety” value is given as “No outstanding safety issues have been demonstrated” and the “dose-limiting adverse events” value is given as “elevations in liver function tests”. In addition, the “apoptosis rates in polyp and normal colonic tissues” value in data set [3] (paired biopsies in APC patients) is “increased apoptosis rates in polyp, but not normal colonic tissues”. For the same compound, the “competition with cGMP (2 μM) in binding of GST-cGB-PDE5” value in data set [4] is reported as “None of the PDE5 inhibitors showed any competition”.

Values taken from patent US20040009464A1, “Methods for identifying compounds for inhibition of neoplastic lesions, and pharmacetical compositions containing such compounds” (priority 1998, published 2004).
